Assay results from patent US7348315B2, “Methods of treating heart failure with modified ATP, ADP and AMP compounds” (priority 1995, dated 2008).

Molecular target: P2 purinergic receptor
Assay: Intact myocyte binding with the P2-selective radioligand [35S]ADPβS
Details: intact myocytes; radioligand range 0.5-200 nM; read-out: Kd of low-affinity [35S]ADPβS binding site
Description: Cardiac ventricular myocytes were prepared and incubated with progressively increasing concentrations of [^35S] ADPβS. The binding reaction is performed by the addition of a Dulbecco's Modified Eagle's Medium (which contains 1-glutamine and glucose but lacks phenol red, adenosine nucleotides, and sodium bicarbonate, buffered by HEPES, pH=7.4) containing [^35S]ADPβS (0.5 to 200 nM, for saturation isotherm study). Nonradioactive ADPβS is used to define the level of nonspecific binding. Additional purinergic agonists or antagonists are added depending on the experimental conditions. Following a 30-minute incubation at 37° C., cells are washed three times with 3 ml of ice-cold wash buffer (containing 120 mM NaCl, 5.4 mM KCl, 0.8 mM MgSO4, 1.8 mM CaCl2, 50 mM HEPES, and 1.0 mM NaH2PO4 adjusted to pH=7.4). One ml of 0.5 M NaOH is added to the monolayer culture to solubilize the cell protein and 0.5 ml of Tris buffer, pH=7.4 is added to neutralize NaOH prior to scintillation counting for ^35S.
To determine the Bmax and Kd of the specific [^35S]ADPβS binding, a computer-aided nonlinear regression analysis (LIGAND PROGRAM) is used. See, […] 1980, 107, 220-239. Both a one-site and a two-site model is applied to fit the data points.

Work on `Nc1ncnc2c1ncn2[C@@H]1O[C@H](COP(=O)(O)OP(O)(O)=S)[C@@H](O)[C@H]1O` [[^35S] ADPβS, [^35S] 5′-O-2-thiodiphosphate] yielded a Kd of 40 nM.
